Measured values: patent US20240116985A1, “STAPLED PEPTIDES AND METHODS THEREOF” (priority 2020, published 2024)
Where two headings read alike, the source gives them in different places.

Tests used:
[1] = target: T1, full-length beta-Catenin (Uniprot ID P35222) (Homo sapiens, UniProt P35222); assay: Fluorescence polarization IC50 (beta-catenin / 5FAM-TCF4 10-53 competition); format: binding; settings: fluorescence polarization
T1 construct: 10 nM full-length beta-Catenin (Uniprot ID P35222)
T1 sequence (P35222 1-781): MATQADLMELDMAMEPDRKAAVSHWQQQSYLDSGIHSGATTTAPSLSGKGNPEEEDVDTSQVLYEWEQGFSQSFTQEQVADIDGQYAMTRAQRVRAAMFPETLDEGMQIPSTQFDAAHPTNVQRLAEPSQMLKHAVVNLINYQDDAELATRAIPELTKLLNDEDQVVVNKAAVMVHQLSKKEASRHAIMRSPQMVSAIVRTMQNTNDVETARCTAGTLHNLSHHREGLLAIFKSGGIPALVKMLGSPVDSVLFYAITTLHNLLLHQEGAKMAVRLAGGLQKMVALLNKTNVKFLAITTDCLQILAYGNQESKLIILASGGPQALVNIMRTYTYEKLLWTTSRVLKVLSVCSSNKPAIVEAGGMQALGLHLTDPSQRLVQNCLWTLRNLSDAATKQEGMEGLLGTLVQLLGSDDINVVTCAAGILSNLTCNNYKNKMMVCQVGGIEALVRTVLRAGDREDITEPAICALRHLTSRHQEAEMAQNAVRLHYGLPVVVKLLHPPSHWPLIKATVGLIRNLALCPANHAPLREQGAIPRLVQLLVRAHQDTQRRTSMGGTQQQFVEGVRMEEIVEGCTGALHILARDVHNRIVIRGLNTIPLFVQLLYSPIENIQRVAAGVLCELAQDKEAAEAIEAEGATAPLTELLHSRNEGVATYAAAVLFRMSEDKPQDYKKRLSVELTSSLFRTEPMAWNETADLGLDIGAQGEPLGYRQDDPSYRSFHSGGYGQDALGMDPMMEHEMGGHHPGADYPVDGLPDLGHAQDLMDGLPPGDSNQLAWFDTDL

[2] = target: T2, beta-catenin/TCF4 engagement (Homo sapiens, UniProt P35222); assay: Nano-BRET target engagement assay (B-cat-Halo & TCF4-Luc in HEK293 cells); format: cell-based; settings: read-out: NanoBRET Abs IC50
T2 construct: expressed in transfected cells; host or cells: HEK293
T2 sequence (P35222 1-781): T1 sequence (P35222 1-781)

Structure (SMILES) | IC50 ([1]; read-out: beta-Catenin FP IC50) | IC50 [2] | IC50 ([2]; absolute IC50) | IC50 ([1]; beta-catenin, read-out: FP EC50)
CC(=O)N1CCC[C@]12CC=CCCCC1(CCCC=CCCCOC(=O)N3CC[C@@](C(=O)N[C@@H](Cc4ccsc4)C(=O)N[C@@H](Cc4csc5ccccc45)C(=O)N[C@@H](C)C(N)=O)(C3)NC(=O)[C@H](Cc3ccccc3)NC(=O)[C@H](Cc3ccccc3)NC(=O)[C@H](C)NC(=O)[C@H](CCC(N)=O)NC(=O)[C@H](Cc3cccc(C(=O)O)c3)NC(=O)[C@H](CC(=O)O)NC1=O)NC(=O)[C@H](CC(C)(C)C)NC(=O)[C@H](CC(=O)O)NC2=O (stereo partly drawn) [I-2052, Ac-PL3-Asp-Npg-B5-Asp-3COOHF-Gln-Ala-Phe-Phe-PyrS2-3Thi-BztA-Ala-NH2] | 12 nM | 6000 nM | – | –
CC(=O)N1CCC[C@]12CC=CCCCC1(CCCC=CCCCOC(=O)N3CC[C@@](C(=O)N[C@@H](Cc4ccccc4C(F)(F)F)C(=O)N[C@@H](Cc4ccc(F)c(Br)c4)C(=O)N[C@@H](CO)C(N)=O)(C3)NC(=O)[C@H](CC(C)C)NC(=O)[C@H](Cc3ccccc3)NC(=O)[C@H](C)NC(=O)[C@H](C)NC(=O)[C@H](Cc3cccc(C(=O)O)c3)NC(=O)[C@H](CC(=O)O)NC1=O)NC(=O)[C@H](CC(C)(C)C)NC(=O)[C@H](CC(=O)O)NC2=O (stereo partly drawn) [I-2289, Ac-PL3-Asp-Npg-B5-Asp-3COOHF-Ala-Ala-Phe-Leu-PyrS2-2F3MeF-3Br4FF-Ser-NH2] | 8 nM | – | 9000 nM | –
CC(=O)N1CCC[C@]12CC=CCCCC1(CCCC=CCCCOC(=O)N3CC[C@@](C(=O)N[C@@H](Cc4ccccc4Cl)C(=O)N[C@@H](Cc4csc5ccccc45)C(=O)N[C@@H](CO)C(=O)N4CCC[C@H]4CO)(C3)NC(=O)[C@H](CC(C)C)NC(=O)[C@H](Cc3ccccc3)NC(=O)[C@H](C)NC(=O)[C@H](C)NC(=O)[C@H](Cc3cccc(C(=O)O)c3)NC(=O)[C@H](CC(=O)O)NC1=O)NC(=O)[C@H](CC(C)(C)C)NC(=O)[C@H](CC(=O)O)NC2=O (stereo partly drawn) [I-1906, Ac-PL3-Asp-Npg-B5-Asp-3COOHF-Ala-Ala-Phe-Leu-PyrS2-2C1F-BztA-Ser-Prool] | 23 nM | 15500 nM | – | –
CC(=O)N1CCC[C@]12CC=CCCCC1(CCCC=CCCCCCC[C@@](C)(C(=O)N[C@@H](Cc3ccccc3)C(=O)N[C@@H](Cc3csc4ccccc34)C(=O)N[C@@H](CCC(N)=O)C(N)=O)NC(=O)[C@H](CC(C)C)NC(=O)[C@H](Cc3ccccc3)NC(=O)[C@H](C)NC(=O)[C@H](C)NC(=O)[C@H](CCC(=O)O)NC(=O)[C@H](CC(=O)O)NC1=O)NC(=O)[C@H](CO)NC(=O)[C@H](CC(=O)O)NC2=O (stereo partly drawn) [I-1528, Ac-PL3-Asp-Ser-B5-Asp-Glu-Ala-Ala-Phe-Leu-S8-Phe-BztA-Gln-NH2] | 102 nM | – | 31400 nM | –
CC(=O)N1CCC[C@]12CC=CCCCC1(CCCC=CCCCCCC[C@@](C)(C(=O)N[C@@H](Cc3ccccc3)C(=O)N[C@@H](Cc3csc4ccccc34)C(=O)N[C@@H](CCC(N)=O)C(N)=O)NC(=O)[C@H](CCO)NC(=O)[C@H](Cc3ccccc3)NC(=O)[C@H](C)NC(=O)[C@H](C)NC(=O)[C@H](CCC(=O)O)NC(=O)[C@H](CC(=O)O)NC1=O)NC(=O)[C@H](CCC(C)C)NC(=O)[C@H](CC(=O)O)NC2=O (stereo partly drawn) [I-1538, Ac-PL3-Asp-Hleu-B5-Asp-Glu-Ala-Ala-Phe-Hse-S8-Phe-BztA-Gln-NH2] | 21 nM | – | 11800 nM | –
CC(=O)N1CCC[C@]12CC=CCCCC1(CCCC=CCCCCCC[C@@](C)(C(=O)N[C@@H](Cc3ccccc3)C(=O)N[C@@H](Cc3csc4ccccc34)C(=O)N[C@@H](CCC(N)=O)C(N)=O)NC(=O)[C@H](CCO)NC(=O)[C@H](Cc3ccccc3)NC(=O)[C@H](C)NC(=O)[C@H](C)NC(=O)[C@H](CCC(=O)O)NC(=O)[C@H](CC(=O)O)NC1=O)NC(=O)[C@H](CC(N)=O)NC(=O)[C@H](CC(=O)O)NC2=O (stereo partly drawn) [I-1534, Ac-PL3-Asp-Asn-B5-Asp-Glu-Ala-Ala-Phe-Hse-S8-Phe-BztA-Gln-NH2] | 181 nM | – | > 20000 nM | –
CC(=O)N1CCC[C@]12CC=CCCCC1(CCCC=CCCCOC(=O)N3CC[C@@](C(=O)N[C@@H](Cc4ccccc4Cl)C(=O)N[C@@H](Cc4csc5ccccc45)C(=O)N[C@@H](CC(C)C)C(N)=O)(C3)NC(=O)[C@H](CC(C)C)NC(=O)[C@H](Cc3ccccc3)NC(=O)[C@H](C)NC(=O)[C@H](C)NC(=O)[C@H](CC(=O)O)NC(=O)[C@H](CC(=O)O)NC1=O)NC(=O)[C@H](CC(C)C)NC(=O)[C@H](CC(=O)O)NC2=O (stereo partly drawn) [I-1418, Ac-PL3-Asp-Leu-B5-Asp-Asp-Ala-Ala-Phe-Leu-PyrS2-2C1F-BztA-Leu-NH2] | 106 nM | – | > 20000 nM | 106 nM
CC(=O)N1CCC[C@]12CC=CCCCC1(CCCC=CCCCOC(=O)N3CC[C@@](C(=O)N[C@@H](Cc4ccsc4)C(=O)N[C@@H](Cc4csc5ccccc45)C(=O)N[C@@H](CCC(N)=O)C(N)=O)(C3)NC(=O)[C@H](CC(=O)N3CCN(C)CC3)NC(=O)[C@H](Cc3ccccc3)NC(=O)[C@H](C)NC(=O)[C@H](C)NC(=O)[C@H](CC(=O)O)NC(=O)[C@H](CC(=O)O)NC1=O)NC(=O)[C@H](CC(C)(C)C)NC(=O)[C@H](CC(=O)O)NC2=O (stereo partly drawn) [I-1488, Ac-PL3-Asp-Npg-B5-Asp-Asp-Ala-Ala-Phe-MePpzAsn-PyrS2-3Thi-BztA-Gln-NH2] | 6 nM | – | 30300 nM | –

More lines, main results first:

IC50 ([1]; read-out: beta-Catenin FP IC50) | IC50 [2] | IC50 ([2]; absolute IC50) | Structure (SMILES) | IC50 ([1]; beta-catenin, read-out: FP EC50)
11 nM | – | 12800 nM | CC(=O)N1CCC[C@]12CC=CCCCC1(CCCC=CCCCOC(=O)N3CC[C@@](C(=O)N[C@@H](Cc4ccccc4Cl)C(=O)N[C@@H](Cc4csc5ccccc45)C(=O)N[C@@H](CCC(N)=O)C(N)=O)(C3)NC(=O)[C@H]([C@@H](C)O)NC(=O)[C@H](Cc3ccccc3)NC(=O)[C@H](C)NC(=O)CNC(=O)[C@H](CN(CC(=O)O)CC(F)(F)F)NC(=O)[C@H](CC(=O)O)NC1=O)NC(=O)[C@H](CC(C)(C)C)NC(=O)[C@H](CC(=O)O)NC2=O (stereo partly drawn) [I-1691, Ac-PL3-Asp-Npg-B5-Asp-TfeGA-Gly-Ala-Phe-Thr-PyrS2-2C1F-BztA-Gln-NH2] | –
25 nM | – | 24800 nM | CC(=O)N1CCC[C@]12CC=CCCCC1(CCCC=CCCCOC(=O)N3CC[C@@](C(=O)N[C@@H](Cc4cccnc4)C(=O)N[C@@H](Cc4csc5ccccc45)C(=O)N[C@@H](CCC(N)=O)C(N)=O)(C3)NC(=O)[C@H](CC(C)C)NC(=O)[C@H](Cc3ccccc3)NC(=O)[C@H](C)NC(=O)[C@H](C)NC(=O)[C@H](CN(CC(=O)O)CC(F)(F)F)NC(=O)[C@H](CC(=O)O)NC1=O)NC(=O)[C@H](CC(C)(C)C)NC(=O)[C@H](CC(=O)O)NC2=O (stereo partly drawn) [I-1701, Ac-PL3-Asp-Npg-B5-Asp-TfeGA-Ala-Ala-Phe-Leu-PyrS2-3PyrA-BztA-Gln-NH2] | –
7 nM | – | 21500 nM | CC(=O)N1CCC[C@]12CC=CCCCC1(CCCC=CCCCOC(=O)N3CC[C@@](C(=O)N[C@@H](Cc4ccsc4)C(=O)N[C@@H](Cc4csc5ccccc45)C(=O)N[C@@H](CCC(N)=O)C(N)=O)(C3)NC(=O)[C@H](CC(=O)N3CCOCC3)NC(=O)[C@H](Cc3ccccc3)NC(=O)[C@H](C)NC(=O)[C@H](C)NC(=O)[C@H](CC(=O)O)NC(=O)[C@H](CC(=O)O)NC1=O)NC(=O)[C@H](CC(C)(C)C)NC(=O)[C@H](CC(=O)O)NC2=O (stereo partly drawn) [I-1487, Ac-PL3-Asp-Npg-B5-Asp-Asp-Ala-Ala-Phe-MorphAsn-PyrS2-3Thi-BztA-Gln-NH2] | –
212 nM | – | > 20000 nM | CC(=O)N1CCC[C@]12CC=CCCCCC1(CCCCC=CCOC(=O)N3CC[C@@](C(=O)N[C@@H](Cc4ccccc4C(F)(F)F)C(=O)N[C@@H](Cc4csc5ccccc45)C(=O)N[C@@H](CCC(N)=O)C(N)=O)(C3)NC(=O)[C@H](CC(C)C)NC(=O)[C@H](Cc3ccccc3)NC(=O)[C@H](C)NC(=O)[C@H](C)NC(=O)[C@H](Cc3cccc(C(=O)O)c3)NC(=O)[C@H](CC(=O)O)NC1=O)NC(=O)[C@H](CC(C)(C)C)NC(=O)[C@H](CC(=O)O)NC2=O (stereo partly drawn) [I-2518, Ac-PL3-Asp-Npg-B6-Asp-3COOHF-Ala-Ala-Phe-Leu-PyrS-2F3MeF-BztA-Gln-NH2] | –
2440 nM | – | > 20000 nM | COC(=O)C[C@@H]1NC(=O)C2(CCCC=CCCCOC(=O)N3CC[C@@](C(=O)N[C@@H](Cc4ccsc4)C(=O)N[C@@H](Cc4csc5ccccc45)C(=O)N[C@@H](CCC(N)=O)C(N)=O)(C3)NC(=O)[C@H](CC(C)C)NC(=O)[C@H](Cc3ccccc3)NC(=O)[C@H](C)NC(=O)[C@H](C)NC(=O)[C@H](CC(=O)O)NC1=O)CCCC=CC[C@]1(CCCN1C(C)=O)C(=O)N[C@@H](CC(=O)O)C(=O)N[C@@H](CC(C)(C)C)C(=O)N2 (stereo partly drawn) [I-2360, Ac-PL3-Asp-Npg-B5-[Me]AspE-Asp-Ala-Ala-Phe-Leu-PyrS2-3Thi-BztA-Gln-NH2] | –
470 nM | > 20000 nM | – | CC(=O)N1CCC[C@]12CC1OC1CCCC1(CCCC=CCCCOC(=O)N3CC[C@@](C(=O)N[C@@H](Cc4ccsc4)C(=O)N[C@@H](Cc4csc5ccccc45)C(=O)N[C@@H](CCC(N)=O)C(N)=O)(C3)NC(=O)[C@H](CC(C)C)NC(=O)[C@H](Cc3ccccc3)NC(=O)[C@H](C)NC(=O)[C@H](C)NC(=O)[C@H](CN(CC(=O)O)CC(F)(F)F)NC(=O)[C@H](CC(=O)O)NC1=O)NC(=O)[C@H](CC(C)(C)C)NC(=O)[C@H](CC(=O)O)NC2=O (stereo partly drawn) [I-2594, Ac-PL3-Asp-Npg-B5-Asp-TfeGA-Ala-Ala-Phe-Leu-PyrS2-3Thi-BztA-Gln-NH2] | –
